Reference: patent publication US7288554B2, “Ortho-substituted aryl amides for controlling invertebrate pests” (E.I. du Pont de Nemours and Company, priority 2001, dated 2007)

## Cc1cccc(S(=O)(=O)NC(C)C)c1NC(=O)c1cc(C(F)(F)F)nn1-c1ncccc1Cl [Compound B3, 1-(3-Chloro-2-pyridinyl)-N-[2-methyl-6-[[(1-methylethyl)amino]sulfonyl]phenyl]-3-(trifluoromethyl)-1H-pyrazole-5-carboxamide]
  melting point: 69 to 73 °C
